Data published in BindingDB's records for doi:10.1016/0968-0896(96)00134-4 (Parke-Davis Pharmaceutical Research, 1996).

Target: T1, Dimer of Gag-Pol polyprotein [489-587] (Human immunodeficiency virus 1, UniProt P12497)
T1 construct: 489-587
Test: Protease Inhibition Assay
Conditions: pH 4.7; 37 °C
Experimental: For determination of IC50 values, HIV-1 protease was added to assay buffer containing inhibitor and the substrate (H-His-Lys-Ala-Arg-Val-Leu- (p-NO2) Phe-Glu-Ala-norleucine-Ser-NH2). The Leu- (p-NO2) Phe bond of the substrate was cleaved by the enzyme, and the substrate and products were separated by reversed-phase HPLC. Absorbance was measured at 220 nm, peak areas were determined, and percentage conversion to product was calculated.

| Compound | IC50 |
| --- | --- |
| O=c1oc(-c2ccccc2)cc(O)c1Sc1ccccc1 | 3000 nM |
| O=C(CCCCC1CCCCC1)OCC(O)C1OC(=O)C(O)C1=O (stereo unspecified) [2-(3,4-dihydroxy-5-oxo-2,5-dihydrofuran-2-yl)-2-hydroxyethyl 5-cyclohexylpentanoate] | 29000 nM |
| O=C(O)c1cc(-c2ccc(Cl)cc2)nc2cc(O)ccc12 [2-(4-chlorophenyl)-7-hydroxyquinoline-4-carboxylic acid] | 6900 nM |
| O=C(O)COc1ccc(-c2cc(O)c(SCCc3ccccc3)c(=O)o2)cc1 [2-(4-{4-hydroxy-2-oxo-3-[(2-phenylethyl)sulfanyl]-2H-pyran-6-yl}phenoxy)acetic acid] | 160 nM |
| O=C(CCc1ccc(Br)cc1)c1ccc(CC(=O)c2ccccc2-c2ccccc2C(=O)O)cc1 [2-[2-(2-{4-[3-(4-bromophenyl)propanoyl]phenyl}acetyl)phenyl]benzoic acid] | 19000 nM |
| O=C(O)c1cc(O)c(O)cc1C(=O)c1cc(Cl)ccc1Cl [2-[(2,5-dichlorophenyl)carbonyl]-4,5-dihydroxybenzoic acid] | 8100 nM |
| O=c1oc(-c2ccccc2)cc(O)c1SCc1ccccc1 [3-(benzylsulfanyl)-4-hydroxy-6-phenyl-2H-pyran-2-one] | 1700 nM |
| Cc1cccc(-c2cc(O)c(Sc3ccccc3C(C)(C)C)c(=O)o2)c1 [3-[(2-tert-butylphenyl)sulfanyl]-4-hydroxy-6-(3-methylphenyl)-2H-pyran-2-one] | 7 nM |
| CC(C)(C)c1ccccc1Sc1c(O)cc(-c2ccccc2)oc1=O [3-[(2-tert-butylphenyl)sulfanyl]-4-hydroxy-6-phenyl-2H-pyran-2-one] | 17 nM |
| O=c1oc2ccccc2c(O)c1Cc1ccccc1 [3-benzyl-4-hydroxy-2H-chromen-2-one] | 120000 nM |
| Cc1ccccc1Sc1c(O)cc(-c2ccccc2)oc1=O [4-hydroxy-3-[(2-methylphenyl)sulfanyl]-6-phenyl-2H-pyran-2-one] | 420 nM |
| O=c1oc(-c2ccc(O)cc2)cc(O)c1SCCc1ccccc1 [4-hydroxy-6-(4-hydroxyphenyl)-3-[(2-phenylethyl)sulfanyl]-2H-pyran-2-one] | 520 nM |
| O=c1oc(-c2ccccc2)cc(O)c1SCCc1ccccc1 [4-hydroxy-6-phenyl-3-[(2-phenylethyl)sulfanyl]-2H-pyran-2-one] | 1300 nM |
| CC(C)c1ccccc1Sc1c(O)cc(-c2ccccc2)oc1=O [4-hydroxy-6-phenyl-3-{[2-(propan-2-yl)phenyl]sulfanyl}-2H-pyran-2-one] | 37 nM |
| O=c1cc(Cc2cccc(Cl)c2)[nH][nH]1 [5-[(3-chlorophenyl)methyl]-2,3-dihydro-1H-pyrazol-3-one] | 29000 nM |

Same assay, conditions: pH 6.2; 37 °C

| Compound | IC50 |
| --- | --- |
| CC(C)c1ccccc1Sc1c(O)cc(-c2ccccc2)oc1=O [4-hydroxy-6-phenyl-3-{[2-(propan-2-yl)phenyl]sulfanyl}-2H-pyran-2-one] | 690 nM |
